Source: publication PMC10285738, “Identification of macrocyclic peptides which activate bacterial cylindrical proteases” (RSC Medicinal Chemistry, 2023)
Starred links: 1 amine or outer side, 2 acyl side, 3 side chain; linkers in the order of their positions; H or OH if unused. Positions of bridges follow the written chain, without caps; N, C: chain ends. Non-standard residues stand in square brackets, D forms with d. Residues, ends and D or L forms follow the SMILES beside them. Phe(3,5-F2) = N[C@@H](Cc1cc(F)cc(F)c1)C(=O)O; CH2COCH2 = O=C(C[*:1])C[*:2]

What was measured:
[1] = two-component Cys/Cys stapling: bis-thiol-Michael addition to 4,6-divinylpyrimidine bearing N-methylglycine (constraint 1 = A), 1.1 equiv; TCEP 1.1 equiv added if the peptide had oxidised; details: the molecule shown is the open-chain precursor, 100 mM phosphate buffer pH 7.4 with DMSO from peptide and staple stocks, 2.8 mM, 22.0 °C, 2 steps
[2] = two-component Cys/Cys stapling: bis-thioether alkylation with 1,3-dichloroacetone (B), 1.1 equiv; TCEP 1.1 equiv added if the peptide had oxidised; details: the molecule shown is the open-chain precursor, 100 mM phosphate buffer pH 7.4 with DMSO (peptide stock) and MeCN (staple stock), 2.7 mM, 22.0 °C, 2 steps
[3] = target: T1, Sa.ClpP (Staphylococcus aureus, UniProt Q2G036); experiment: Thermal shift assay (differential scanning fluorimetry); assay type: binding; details: S. aureus ClpP 5 µM, ligand 200 µM, HEPES 100 mM pH 7, NaCl 150 mM, sypro orange 5x, 30-90 °C in 0.5 °C increments; mean ± SD of duplicates of at least two independent experiments
T1 construct: Strep-tag (C); made in house; host or cells: E. coli SG1146a (lacks endogenous ClpP)
Excerpt: All concentrations are given as final concentrations. […]
real-time qPCR (Bio-Rad CF X96).
SD of duplicates of at least two independent experiments.
equilibrated Superdex 200 Increase 10/300 GL column (Cytiva). […]

T1 sequence (Q2G036 whole entry): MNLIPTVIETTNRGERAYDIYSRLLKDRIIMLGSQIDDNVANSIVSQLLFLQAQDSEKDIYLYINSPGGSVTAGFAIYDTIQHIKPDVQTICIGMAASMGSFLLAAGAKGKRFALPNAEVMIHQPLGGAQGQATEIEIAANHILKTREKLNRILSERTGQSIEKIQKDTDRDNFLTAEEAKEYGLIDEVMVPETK

C=Cc1cc(CCSC[C@H](NC(C)=O)C(=O)NCC(=O)N[C@H](C(=O)NCC(=O)N[C@@H](C)C(=O)NCC(=O)N[C@@H](CS)C(N)=O)[C@@H](C)CC)nc(N(C)CC(=O)O)n1 [Ac-Cys-Gly-Ile-Gly-Ala-Gly-Cys-NH2]
ring closure, yield over several steps ([1]; 30-membered ring): 90.6%

CC[C@H](C)[C@H](NC(=O)CNC(=O)[C@H](CSCC(=O)CCl)NC(C)=O)C(=O)NCC(=O)N[C@@H](C)C(=O)NCC(=O)N[C@@H](CS)C(N)=O [Ac-Cys-Gly-Ile-Gly-Ala-Gly-Cys-NH2]
ring closure, yield over several steps ([2]; 26-membered ring): 18.4%

C=Cc1cc(CCSC[C@H](NC(C)=O)C(=O)NCC(=O)N[C@H](C(=O)NCC(=O)N[C@H](Cc2ccccc2)C(=O)NCC(=O)N[C@@H](CS)C(N)=O)[C@@H](C)CC)nc(N(C)CC(=O)O)n1 [Ac-Cys-Gly-Ile-Gly-D-Phe-Gly-Cys-NH2]
ring closure, yield over several steps ([1]; 30-membered ring): 61%

CC[C@H](C)[C@H](NC(=O)CNC(=O)[C@H](CSCC(=O)CCl)NC(C)=O)C(=O)NCC(=O)N[C@H](Cc1ccccc1)C(=O)NCC(=O)N[C@@H](CS)C(N)=O [Ac-Cys-Gly-Ile-Gly-D-Phe-Gly-Cys-NH2]
ring closure, yield over several steps ([2]; 26-membered ring): 46.6%

C=Cc1cc(CCSC[C@H](NC(C)=O)C(=O)NCC(=O)N[C@H](C(=O)NCC(=O)N[C@@H](Cc2cc(F)cc(F)c2)C(=O)NCC(=O)N[C@@H](CS)C(N)=O)[C@@H](C)CC)nc(N(C)CC(=O)O)n1 [Ac-Cys-Gly-Ile-Gly-Phe(3,5-F2)-Gly-Cys-NH2]
ring closure, yield over several steps ([1]; 30-membered ring): 14.1%

CC[C@H](C)[C@H](NC(=O)CNC(=O)[C@H](CSCC(=O)CCl)NC(C)=O)C(=O)NCC(=O)N[C@@H](Cc1cc(F)cc(F)c1)C(=O)NCC(=O)N[C@@H](CS)C(N)=O [Ac-Cys-Gly-Ile-Gly-Phe(3,5-F2)-Gly-Cys-NH2]
ring closure, yield over several steps ([2]; 26-membered ring): 43.3%

C=Cc1cc(CCSC[C@H](NC(C)=O)C(=O)NCC(=O)N[C@H](C(=O)NCC(=O)N[C@@H](Cc2ccccc2)C(=O)NCC(=O)N[C@@H](C)C(=O)N[C@@H](CS)C(N)=O)[C@@H](C)CC)nc(N(C)CC(=O)O)n1 [Ac-Cys-Gly-Ile-Gly-Phe-Gly-Ala-Cys-NH2]
ring closure, yield over several steps ([1]; 33-membered ring): 46.2%

CC[C@H](C)[C@H](NC(=O)CNC(=O)[C@H](CSCC(=O)CCl)NC(C)=O)C(=O)NCC(=O)N[C@@H](Cc1ccccc1)C(=O)NCC(=O)N[C@@H](C)C(=O)N[C@@H](CS)C(N)=O [Ac-Cys-Gly-Ile-Gly-Phe-Gly-Ala-Cys-NH2]
ring closure, yield over several steps ([2]; 29-membered ring): 48.3%

C=Cc1cc(CCSC[C@H](NC(C)=O)C(=O)NCC(=O)N[C@H](C(=O)NCC(=O)N[C@@H](Cc2ccccc2)C(=O)NCC(=O)N[C@@H](C)C(=O)N[C@H](C(=O)N[C@@H](CS)C(N)=O)[C@@H](C)O)[C@@H](C)CC)nc(N(C)CC(=O)O)n1 [Ac-Cys-Gly-Ile-Gly-Phe-Gly-Ala-Thr-Cys-NH2]
ring closure, yield over several steps ([1]; 36-membered ring): 34.3%

CC[C@H](C)[C@H](NC(=O)CNC(=O)[C@H](CSCC(=O)CCl)NC(C)=O)C(=O)NCC(=O)N[C@@H](Cc1ccccc1)C(=O)NCC(=O)N[C@@H](C)C(=O)N[C@H](C(=O)N[C@@H](CS)C(N)=O)[C@@H](C)O [Ac-Cys-Gly-Ile-Gly-Phe-Gly-Ala-Thr-Cys-NH2]
ring closure, yield over several steps ([2]; 32-membered ring): 19%

C=Cc1cc(CCSC[C@H](NC(C)=O)C(=O)NCC(=O)N[C@H](C(=O)NCC(=O)N[C@@H](Cc2ccccc2)C(=O)NCC(=O)N[C@@H](CS)C(N)=O)[C@@H](C)CC)nc(N(C)CC(=O)O)n1 [Ac-Cys-Gly-Ile-Gly-Phe-Gly-Cys-NH2]
ring closure, yield over several steps ([1]; 30-membered ring): 6.8%

CC[C@H](C)[C@H](NC(=O)CNC(=O)[C@H](CSCC(=O)CCl)NC(C)=O)C(=O)NCC(=O)N[C@@H](Cc1ccccc1)C(=O)NCC(=O)N[C@@H](CS)C(N)=O [Ac-Cys-Gly-Ile-Gly-Phe-Gly-Cys-NH2]
ring closure, yield over several steps ([2]; 26-membered ring): 27.3%

C=Cc1cc(CCSC[C@H](NC(C)=O)C(=O)N[C@H](C(=O)NCC(=O)N[C@@H](Cc2ccccc2)C(=O)NCC(=O)N[C@@H](C)C(=O)N[C@@H](CS)C(N)=O)[C@@H](C)CC)nc(N(C)CC(=O)O)n1 [Ac-Cys-Ile-Gly-Phe-Gly-Ala-Cys-NH2]
ring closure, yield over several steps ([1]; 30-membered ring): 25.7%

CC[C@H](C)[C@H](NC(=O)[C@H](CSCC(=O)CCl)NC(C)=O)C(=O)NCC(=O)N[C@@H](Cc1ccccc1)C(=O)NCC(=O)N[C@@H](C)C(=O)N[C@@H](CS)C(N)=O [Ac-Cys-Ile-Gly-Phe-Gly-Ala-Cys-NH2]
ring closure, yield over several steps ([2]; 26-membered ring): 13.5%

C=Cc1cc(CCSC[C@H](NC(C)=O)C(=O)N[C@H](C(=O)NCC(=O)N[C@@H](Cc2ccccc2)C(=O)NCC(=O)N[C@@H](C)C(=O)N[C@H](C(=O)N[C@@H](CS)C(N)=O)[C@@H](C)O)[C@@H](C)CC)nc(N(C)CC(=O)O)n1 [Ac-Cys-Ile-Gly-Phe-Gly-Ala-Thr-Cys-NH2]
ring closure, yield over several steps ([1]; 33-membered ring): 20.5%

CC[C@H](C)[C@H](NC(=O)[C@H](CSCC(=O)CCl)NC(C)=O)C(=O)NCC(=O)N[C@@H](Cc1ccccc1)C(=O)NCC(=O)N[C@@H](C)C(=O)N[C@H](C(=O)N[C@@H](CS)C(N)=O)[C@@H](C)O [Ac-Cys-Ile-Gly-Phe-Gly-Ala-Thr-Cys-NH2]
ring closure, yield over several steps ([2]; 29-membered ring): 55.3%

C=Cc1cc(CCSC[C@H](NC(C)=O)C(=O)N[C@H](C(=O)NCC(=O)N[C@@H](Cc2ccccc2)C(=O)NCC(=O)N[C@@H](CS)C(N)=O)[C@@H](C)CC)nc(N(C)CC(=O)O)n1 [Ac-Cys-Ile-Gly-Phe-Gly-Cys-NH2]
ring closure, yield over several steps ([1]; 27-membered ring): 75.6%

CC[C@H](C)[C@@H]1NC(=O)CNC(=O)[C@@H](NC(C)=O)CSCC(=O)CSC[C@@H](C(N)=O)NC(=O)CNC(=O)[C@H](Cc2cc(F)cc(F)c2)NC(=O)CNC1=O [P9-B] (Ac-CGIG[Phe(3,5-F2)]GC-NH2; linker 1-7 via CH2COCH2)
apparent increase in melting temperature of Sa.ClpP [3]: 1.1 ± 0.2 °C
